Read-outs that look alike come from different tables or passages of the source.
Assays:
ERRα = molecular target: T1, ERRα (Homo sapiens, UniProt P11474); assay: ThermoFluor thermal shift assay, ERRα; type: binding; conditions: for ΔTm, thermal stabilization of ERRα / ΔTm at 100 µM: 100 μM test compound, 0.1 mg/mL protein, 25 mM HEPES pH 8.0, 25 μM ANS, 2% DMSO, Tm free protein 54.4 °C; for ΔTm at 100 µM: read-out: ΔTm, thermal stabilization of ERRα
T1 sequence (P11474 193-421 limits assumed): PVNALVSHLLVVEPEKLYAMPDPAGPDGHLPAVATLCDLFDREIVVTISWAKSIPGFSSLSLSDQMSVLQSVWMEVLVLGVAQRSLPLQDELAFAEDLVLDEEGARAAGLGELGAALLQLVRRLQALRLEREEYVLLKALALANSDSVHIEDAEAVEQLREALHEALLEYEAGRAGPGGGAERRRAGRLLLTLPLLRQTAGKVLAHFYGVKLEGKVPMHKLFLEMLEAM

[1] = molecular target: T2, ligand binding domain of ERRγ (Homo sapiens, UniProt P62508); assay: ThermoFluor thermal shift assay, ERRγ ligand binding domain; conditions: for ΔTm, thermal stabilization of ERRγ / ΔTm at 100 µM: 100 μM test compound, 0.1 mg/mL protein, 25 mM HEPES pH 8.0, Tm free protein 49.6 °C; for Kd: read-out: Estimated dissociation constant, ERRγ; for ΔTm at 100 µM: read-out: ΔTm, thermal stabilization of ERRγ
T2 construct: 6His; made in house; host or cells: E. coli BL21(DE3)
T2 sequence (P62508 229-458): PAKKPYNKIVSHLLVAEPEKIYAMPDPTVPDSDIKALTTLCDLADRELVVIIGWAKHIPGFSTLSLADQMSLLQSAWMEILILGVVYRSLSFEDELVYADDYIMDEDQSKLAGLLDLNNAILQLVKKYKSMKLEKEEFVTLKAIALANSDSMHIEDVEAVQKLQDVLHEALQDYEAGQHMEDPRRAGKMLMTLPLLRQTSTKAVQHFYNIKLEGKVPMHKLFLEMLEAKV
Experimental: The vector was in E. coli BL21(DE3) and cultured in Minimal media (M9) at 37° C. to an OD595 0.6-0.8, followed by induction at 15° C. with 0.4 mM IPTG for 20 hours. The next day, the culture was harvested and lysed in buffer A (Buffer A: 20 mM Tris-HCl, pH 7.5, 0.4 M NaCl and 5 mM Imidazole) using an Emulsiflex-C5 french press (Avestin). Lysates were spun at 40,000×g for 45 minutes to remove insoluble material. The clarified lysate was applied on a Ni-NTA column and eluted with a linear gradient of imidazole. The protein was further purified by applying the eluent on a Superdex 200 HR 10/30 column (Amersham Pharmacia Biotech) equilibrated with Buffer B (Buffer B: 20 mM Tris-HCl pH 7.5, 0.2M NaCl, 1 mM EDTA and 1 mM DTT). […] Fractions were pulled and concentrated to 4 mg/ml and frozen in liquid nitrogen and stored at −80° C.
The ligand binding domain of ERRγ was screened against a library of known estrogen activators and a generic drug library using ThermoFluor®. ThermoFluor® is a miniaturized thermal shift assay, that has been developed for HTS applications; as a secondary assay for confirmation and characterization of hits; and as a functional assay to characterize orphan proteins. ThermoFluor® exploits the well-described phenomenon of ligand induced stabilization of macromolecules. Ligand binding energy adds directly to the ground state energy of a macromolecule and results in increased thermal stability. The degree of stabilization is proportional to the binding affinity of the ligand for the macromolecule.
Assay plates were prepared by dispensing 2 μL of a protein-dye solution and 2 μL of the test compound in a 384-well plate. […] Finally 1 μL of mineral oil was dispensed on top to prevent evaporation during the high throughput screen (HTS). ThermoFluor® is an HTS assay that measures protein unfolding based on fluorescence detection of the denatured form of the protein. The reporter for the protein unfolding event is the environmentally sensitive dye ANS that is incorporated in the screening buffer. During a typical experiment the 384-well plate is heated at a ramping rate of 1° C./min and the thermal unfolding of the protein is monitored at 1° C. intervals by measuring fluorescence changes detected through a CCD camera. Captured images are integrated and a melting curve is generated that relates fluorescence to fraction of unfolded protein as a function of temperature. […] Hits were identified from the screen by measuring an increase in the melting temperature of the protein.
In order to estimate binding affinities, it was taken into account that the oligomeric state of ERRγ which is a dimer (N2), and that of a single ligand (Lf) can interact per monomer subunit with equal affinity. The melting curve for such a system is described by the following three equilibria:
To compare dissociation constants at a common reference temperature, Tref, the following equation was used: […]
In the thermodynamic treatment of the data the following assumptions were made: i) the small ligand interacts only with the folded state of the protein, ii) the reactions are reversible; iii) the unfolding protein reaction is a two-state process and iv) ideal dilute solutions are being used (specific activity for protein and ligands is equal to 1).

ERRβ = molecular target: T3, ERRβ (Homo sapiens, UniProt O95718); assay: ThermoFluor thermal shift assay, ERRβ; type: binding; conditions: for ΔTm, thermal stabilization of ERRβ / ΔTm at 100 µM: 100 μM test compound, 0.1 mg/mL protein, 25 mM HEPES pH 8.0, Tm free protein 47.5 °C; for Kd: read-out: Estimated dissociation constant, ERRβ; for ΔTm at 100 µM: read-out: ΔTm, thermal stabilization of ERRβ
T3 sequence (O95718 208-432 limits assumed): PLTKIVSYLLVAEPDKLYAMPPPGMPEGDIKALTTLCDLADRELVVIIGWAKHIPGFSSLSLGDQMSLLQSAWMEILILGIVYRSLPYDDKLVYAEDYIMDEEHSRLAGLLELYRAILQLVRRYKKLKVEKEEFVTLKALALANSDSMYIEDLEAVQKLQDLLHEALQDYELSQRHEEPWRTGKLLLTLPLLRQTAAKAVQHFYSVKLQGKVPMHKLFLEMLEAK

ERβ = ERβ (Homo sapiens, UniProt Q92731); assay: ThermoFluor thermal shift assay, ERβ; type: binding; conditions: for Kd: calculated at reference temperature 25 °C from ΔTm of Table II, ΔHu 122 kcal/mol, read-out: Estimated dissociation constant, ERγ
ERα = molecular target: T4, ERα (Homo sapiens, UniProt P03372); assay: ThermoFluor thermal shift assay, ERα; type: binding
T4 sequence (P03372 1-595): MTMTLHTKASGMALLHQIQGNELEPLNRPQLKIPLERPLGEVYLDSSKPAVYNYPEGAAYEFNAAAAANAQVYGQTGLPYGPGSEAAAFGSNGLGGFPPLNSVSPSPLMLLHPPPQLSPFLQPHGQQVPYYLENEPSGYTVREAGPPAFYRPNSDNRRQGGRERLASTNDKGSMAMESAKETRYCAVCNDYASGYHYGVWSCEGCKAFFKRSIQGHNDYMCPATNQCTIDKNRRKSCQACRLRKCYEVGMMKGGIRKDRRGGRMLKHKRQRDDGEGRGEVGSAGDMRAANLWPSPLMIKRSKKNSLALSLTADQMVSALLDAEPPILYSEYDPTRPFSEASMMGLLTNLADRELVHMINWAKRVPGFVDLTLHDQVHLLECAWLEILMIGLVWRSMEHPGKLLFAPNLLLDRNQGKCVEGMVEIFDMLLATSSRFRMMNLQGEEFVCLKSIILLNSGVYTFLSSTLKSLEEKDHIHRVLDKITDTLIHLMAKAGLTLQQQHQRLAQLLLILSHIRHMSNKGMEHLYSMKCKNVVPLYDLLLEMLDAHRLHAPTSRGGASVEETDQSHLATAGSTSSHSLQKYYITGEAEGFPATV

[2] = 100 μM test compound, 0.1 mg/mL protein, 25 mM HEPES pH 8.0, Tm free protein 41.1 °C
[3] = 100 μM test compound, 0.1 mg/mL protein, 25 mM HEPES pH 8.0, Tm free protein 39.1 °C
[4] = calculated at reference temperature 25 °C from ΔTm of Table II, ΔHu 112 kcal/mol, read-out: Estimated dissociation constant, ERα
[5] = 100 μM test compound, 0.1 mg/mL protein, 25 mM HEPES pH 8.0, Tm free protein 41.1 °C, read-out: ΔTm, thermal stabilization of ERβ
[6] = 100 μM test compound, 0.1 mg/mL protein, 25 mM HEPES pH 8.0, Tm free protein 39.1 °C, read-out: ΔTm, thermal stabilization of ERα

Sequence of ERβ (Q92731 whole entry, species assumed): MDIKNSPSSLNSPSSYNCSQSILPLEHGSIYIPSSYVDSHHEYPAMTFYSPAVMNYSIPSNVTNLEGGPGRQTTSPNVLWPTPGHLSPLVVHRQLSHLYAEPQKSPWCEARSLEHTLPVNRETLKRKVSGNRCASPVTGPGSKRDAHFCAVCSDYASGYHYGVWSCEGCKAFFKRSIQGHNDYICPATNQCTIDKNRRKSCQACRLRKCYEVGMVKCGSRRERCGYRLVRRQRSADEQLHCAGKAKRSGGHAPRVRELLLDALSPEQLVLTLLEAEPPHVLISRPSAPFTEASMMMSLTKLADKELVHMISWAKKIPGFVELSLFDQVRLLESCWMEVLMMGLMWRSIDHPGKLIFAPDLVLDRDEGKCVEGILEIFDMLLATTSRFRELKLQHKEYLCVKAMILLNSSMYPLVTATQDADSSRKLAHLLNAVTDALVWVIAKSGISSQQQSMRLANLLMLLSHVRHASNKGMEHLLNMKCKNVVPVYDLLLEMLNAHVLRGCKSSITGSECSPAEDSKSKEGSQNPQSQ

Row | Molecule | ΔTm, thermal stabilization of ERRα (ERRα) | ΔTm, thermal stabilization of ERRγ [1] | ΔTm, thermal stabilization of ERRβ (ERRβ) | Kd (ERβ) | ΔTm at 100 µM (ERβ; [5]) | ΔTm at 100 µM (ERRα) | ΔTm at 100 µM [1] | ΔTm at 100 µM (ERRβ) | other results
1 | 4-bromocresol | 0.1 °C | 4.3 °C | 0.5 °C |  |  |  |  |  | Kd ([1]; calculated at reference temperature 25 °C from ΔTm of Table II, ΔHu 165 kcal/mol): 633 nM; Kd (ERRβ; calculated at reference temperature 25 °C from ΔTm of Table II, ΔHu 155 kcal/mol): 17200 nM
2 | COc1cc2c(cc1O)CC[C@@H]1[C@@H]2CC[C@]2(C)[C@@H](O)CC[C@@H]12 [2-methoxy-estradiol] | 0.1 °C | 0.0 °C | −0.1 °C | 2310 nM |  |  |  |  | ΔTm, thermal stabilization of ERβ (ERβ; [2]): 2.9 °C; ΔTm, thermal stabilization of ERα (ERα; [3]): 3.5 °C; Kd (ERα; [4]): 2660 nM
3 | C[C@]12CC[C@H]3[C@@H](CCC4=C[C@H](O)CC[C@@H]43)[C@@H]1CC[C@@H]2O [4-estrene-3-α-17-β-diol] |  |  |  | 157 nM | 7.7 °C | 0 °C | -0.1 °C | -0.1 °C | Kd (ERα): 1270 nM; ΔTm at 100 µM (ERα; pH 8, read-out: ΔTm, thermal stabilization of ERα): 4.9 °C
4 | CCc1cc(O)ccc1Cl [4chloro-3ethyl-phenol] |  |  |  |  |  | 0.2 °C | 4.1 °C | 0.4 °C | Kd [1]: 722 nM; Kd (ERRβ): 18000 nM
5 | C[C@]12CC[C@@H]3c4ccc(O)cc4CC[C@H]3[C@@H]1CC[C@H]2O [17-α-estradiol] |  | 1.3 °C | 0.0 °C |  |  |  |  |  | 
6 | C[C@]12CC[C@@H]3c4ccc(O)cc4CC[C@H]3[C@@H]1CC[C@@H]2O [17-β-estradiol] |  | 0.6 °C | −0.1 °C |  |  |  |  |  | 
7 | N#CC(Cc1ccc(O)cc1)c1ccc(O)cc1 (stereo not drawn) [DPN] | −0.2 °C | 0.3 °C | 0.2 °C |  |  |  |  |  | 
8 | O=c1c(-c2ccc(O)cc2)coc2cc(O)ccc12 [Daidzein] |  |  |  |  |  | 0 °C | -0.1 °C | 0.3 °C | ΔTm at 100 µM (ERβ; pH 8, read-out: ΔTm, thermal stabilization of ERβ): 8.9 °C; Interaction with / stabilization of ERRα, in words (ERRα; ThermoFluor): did not interact; ΔTm at 100 µM (ERα; [6]): 4.1 °C; Interaction with / stabilization of ERRγ, in words ([1]; ThermoFluor): did not interact; Interaction with / stabilization of ERRβ, in words (ERRβ; ThermoFluor): did not interact
9 | C[C@]12CC[C@@H]3c4ccc(O)cc4C[C@@H](CCCCCCCCC[S+]([O-])CCCC(F)(F)C(F)(F)F)[C@H]3[C@@H]1CC[C@@H]2O (stereo partly drawn) [ICI-182780] |  |  |  |  | 16.7 °C | 0 °C | 0 °C | 0 °C | ΔTm at 100 µM (ERα; [6]): 13.9 °C
10 | CCCc1c(-c2ccc(O)cc2)nn(-c2ccc(O)cc2)c1-c1ccc(O)cc1 [PPT] | −2.3 °C | −1.8 °C | −3.5 °C | 58.3 nM |  |  |  |  | ΔTm, thermal stabilization of ERβ (ERβ; [2]): 9.5 °C; ΔTm, thermal stabilization of ERα (ERα; [3]): 11.7 °C; Kd (ERα; [4]): 38.7 nM
11 | CCN(CC)CCOc1ccc(C(=C(Cl)c2ccccc2)c2ccccc2)cc1 [clomiphene] |  |  |  | 52.1 nM | 9.7 °C |  |  |  | 
12 | O=C(c1ccc(OCCN2CCCCC2)cc1)c1c(-c2ccc(O)cc2)sc2cc(O)ccc12 [raloxifene] |  |  |  |  | 11.9 °C |  |  |  | 
13 | Oc1ccc(/C=C/c2cc(O)cc(O)c2)cc1 [resvesterol] | 0.0 °C | 0.4 °C | 0.2 °C |  |  |  |  |  | 

— patent US7655756B2 (Johnson & Johnson Pharmaceutical Research & Development, LLC, priority 2005, dated 2010)
